# Activity calls are given as the source filed them.
# Tests used:
# ORF 73 = target: T1, ORF 73 (Human herpesvirus 8, UniProt O40947); assay: inhibitors of C-LANA binding to LBS DNA, dose response, biochemical, fluorescence polarization, cherry-picked samples (AID 504725); parameters: species or system Human gammaherpesvirus 8;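 further: fluorescence polarization of a labeled DNA duplex reporting LANA DNA binding; potency is for inhibitors that block LANA binding to the DNA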
# T1 sequence (O40947 whole entry): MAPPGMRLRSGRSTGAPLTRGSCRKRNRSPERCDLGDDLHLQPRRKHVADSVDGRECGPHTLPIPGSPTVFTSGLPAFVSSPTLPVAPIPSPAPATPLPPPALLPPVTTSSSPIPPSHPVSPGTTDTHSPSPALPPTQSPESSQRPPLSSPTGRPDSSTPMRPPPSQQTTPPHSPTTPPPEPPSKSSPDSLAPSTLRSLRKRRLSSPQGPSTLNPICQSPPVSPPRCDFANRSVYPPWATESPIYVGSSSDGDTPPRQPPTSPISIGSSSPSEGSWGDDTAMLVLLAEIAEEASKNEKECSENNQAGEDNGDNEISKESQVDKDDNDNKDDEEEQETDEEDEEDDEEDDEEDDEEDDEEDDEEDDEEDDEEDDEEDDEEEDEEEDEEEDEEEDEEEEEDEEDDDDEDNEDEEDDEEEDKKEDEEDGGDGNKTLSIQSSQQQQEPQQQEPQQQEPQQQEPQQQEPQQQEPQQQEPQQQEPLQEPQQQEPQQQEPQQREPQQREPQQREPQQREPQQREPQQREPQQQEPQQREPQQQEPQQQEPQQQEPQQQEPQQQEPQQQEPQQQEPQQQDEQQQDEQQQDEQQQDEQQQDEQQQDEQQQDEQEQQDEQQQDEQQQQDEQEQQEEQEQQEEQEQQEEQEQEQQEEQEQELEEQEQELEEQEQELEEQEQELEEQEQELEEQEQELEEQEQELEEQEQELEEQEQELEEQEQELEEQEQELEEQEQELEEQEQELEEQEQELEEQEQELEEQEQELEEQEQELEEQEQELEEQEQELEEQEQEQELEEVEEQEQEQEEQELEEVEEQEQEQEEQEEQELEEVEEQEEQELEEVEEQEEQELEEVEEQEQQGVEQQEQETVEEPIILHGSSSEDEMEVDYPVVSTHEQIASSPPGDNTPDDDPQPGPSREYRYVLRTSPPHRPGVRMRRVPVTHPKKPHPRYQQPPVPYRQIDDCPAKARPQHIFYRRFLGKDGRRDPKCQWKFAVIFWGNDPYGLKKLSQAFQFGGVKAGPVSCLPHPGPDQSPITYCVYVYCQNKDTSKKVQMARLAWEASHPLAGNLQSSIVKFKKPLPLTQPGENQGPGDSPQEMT
# [1] = target: T2, Sentrin-specific protease 6 (Homo sapiens, UniProt Q9GZR1); assay type: functional;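 further: Luminescence-based dose-response confirmatory assay of SENP6 inhibition, following up an ultra-high-throughput screen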
# T2 sequence (Q9GZR1 whole entry): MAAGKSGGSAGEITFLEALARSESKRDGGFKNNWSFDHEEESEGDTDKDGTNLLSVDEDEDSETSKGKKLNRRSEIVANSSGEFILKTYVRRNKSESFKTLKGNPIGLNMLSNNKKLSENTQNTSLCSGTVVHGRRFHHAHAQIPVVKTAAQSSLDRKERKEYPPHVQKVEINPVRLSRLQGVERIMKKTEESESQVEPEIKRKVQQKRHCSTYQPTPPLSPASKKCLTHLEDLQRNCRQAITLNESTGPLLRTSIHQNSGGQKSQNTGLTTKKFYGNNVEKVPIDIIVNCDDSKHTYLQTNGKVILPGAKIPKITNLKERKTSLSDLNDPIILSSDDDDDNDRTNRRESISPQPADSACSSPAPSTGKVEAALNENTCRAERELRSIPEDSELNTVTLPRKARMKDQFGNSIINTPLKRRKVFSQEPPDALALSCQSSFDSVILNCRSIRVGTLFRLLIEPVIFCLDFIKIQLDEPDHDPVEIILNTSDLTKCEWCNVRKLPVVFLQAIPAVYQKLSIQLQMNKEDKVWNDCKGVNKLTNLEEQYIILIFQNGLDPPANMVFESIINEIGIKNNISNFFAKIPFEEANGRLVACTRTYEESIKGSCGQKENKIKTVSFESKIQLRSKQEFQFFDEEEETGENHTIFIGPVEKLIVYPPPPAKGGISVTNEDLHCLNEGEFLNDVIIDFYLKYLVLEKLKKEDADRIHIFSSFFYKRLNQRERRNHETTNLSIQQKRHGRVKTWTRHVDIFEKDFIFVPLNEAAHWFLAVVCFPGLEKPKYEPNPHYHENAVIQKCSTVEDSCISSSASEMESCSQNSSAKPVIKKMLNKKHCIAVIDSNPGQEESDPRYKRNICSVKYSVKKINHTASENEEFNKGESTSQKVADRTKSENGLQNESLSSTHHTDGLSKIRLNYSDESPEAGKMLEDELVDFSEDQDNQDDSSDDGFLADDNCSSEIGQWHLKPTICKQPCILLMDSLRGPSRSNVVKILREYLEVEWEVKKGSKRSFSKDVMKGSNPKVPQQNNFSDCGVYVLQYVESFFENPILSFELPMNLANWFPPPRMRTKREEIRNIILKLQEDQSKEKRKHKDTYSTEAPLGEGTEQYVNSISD
# [2] = target: Mitogen-activated protein kinase 8 (Homo sapiens, UniProt P45983); assay type: functional;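 further: value comes from one member of a kinome-wide kinase profiling panel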
# Mitogen-activated protein kinase 8, sequence (P45983 whole entry): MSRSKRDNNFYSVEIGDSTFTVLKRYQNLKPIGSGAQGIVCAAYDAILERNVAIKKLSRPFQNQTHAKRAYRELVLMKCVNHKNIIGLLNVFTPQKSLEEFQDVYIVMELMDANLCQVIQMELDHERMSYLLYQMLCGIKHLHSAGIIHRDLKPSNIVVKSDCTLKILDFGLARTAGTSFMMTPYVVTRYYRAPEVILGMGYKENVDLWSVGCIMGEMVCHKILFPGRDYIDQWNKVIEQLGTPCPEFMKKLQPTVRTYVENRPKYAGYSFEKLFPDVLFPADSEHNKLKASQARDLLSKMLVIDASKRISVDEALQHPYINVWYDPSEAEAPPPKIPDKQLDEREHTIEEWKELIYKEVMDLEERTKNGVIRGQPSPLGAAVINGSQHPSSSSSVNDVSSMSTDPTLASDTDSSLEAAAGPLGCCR
smiles,measurement,setting,value
O=S(=O)(O)c1cccc2c(N=Nc3ccc(O)c4ncccc34)cccc12,AC50,ORF 73,64100 nM (active)
O=C(NNc1cc(N2CCCC2)nc(N2CCCC2)n1)c1ccc([N+](=O)[O-])cc1,IC50,[1],1810 nM (active)
O=C(Cc1cccs1)Nc1nc2ccccc2s1,Ki,[2],1000 nM (active)

# — ChEMBL document CHEMBL1201862, “PubChem BioAssay data set” (2004)
